{"source": "patent US7173063B1", "about": "“Topoisomerase poisons for the treatment of proliferative disorders” (Fred Hutchinson Cancer Research Center, priority 2000, dated 2007)"}
{"target": "T1, Topo II (Saccharomyces cerevisiae, UniProt P06786)", "T1 construct": "Strains are wild-type (wt) or constitutively overexpressing Topo II (TOP2oe); endogenous in cells; host or cells: S. cerevisiae A364a background, chromosomal TOP2 with its promoter replaced by the GPD promoter (TOP2oe)", "T1 sequence (P06786 1-1428)": "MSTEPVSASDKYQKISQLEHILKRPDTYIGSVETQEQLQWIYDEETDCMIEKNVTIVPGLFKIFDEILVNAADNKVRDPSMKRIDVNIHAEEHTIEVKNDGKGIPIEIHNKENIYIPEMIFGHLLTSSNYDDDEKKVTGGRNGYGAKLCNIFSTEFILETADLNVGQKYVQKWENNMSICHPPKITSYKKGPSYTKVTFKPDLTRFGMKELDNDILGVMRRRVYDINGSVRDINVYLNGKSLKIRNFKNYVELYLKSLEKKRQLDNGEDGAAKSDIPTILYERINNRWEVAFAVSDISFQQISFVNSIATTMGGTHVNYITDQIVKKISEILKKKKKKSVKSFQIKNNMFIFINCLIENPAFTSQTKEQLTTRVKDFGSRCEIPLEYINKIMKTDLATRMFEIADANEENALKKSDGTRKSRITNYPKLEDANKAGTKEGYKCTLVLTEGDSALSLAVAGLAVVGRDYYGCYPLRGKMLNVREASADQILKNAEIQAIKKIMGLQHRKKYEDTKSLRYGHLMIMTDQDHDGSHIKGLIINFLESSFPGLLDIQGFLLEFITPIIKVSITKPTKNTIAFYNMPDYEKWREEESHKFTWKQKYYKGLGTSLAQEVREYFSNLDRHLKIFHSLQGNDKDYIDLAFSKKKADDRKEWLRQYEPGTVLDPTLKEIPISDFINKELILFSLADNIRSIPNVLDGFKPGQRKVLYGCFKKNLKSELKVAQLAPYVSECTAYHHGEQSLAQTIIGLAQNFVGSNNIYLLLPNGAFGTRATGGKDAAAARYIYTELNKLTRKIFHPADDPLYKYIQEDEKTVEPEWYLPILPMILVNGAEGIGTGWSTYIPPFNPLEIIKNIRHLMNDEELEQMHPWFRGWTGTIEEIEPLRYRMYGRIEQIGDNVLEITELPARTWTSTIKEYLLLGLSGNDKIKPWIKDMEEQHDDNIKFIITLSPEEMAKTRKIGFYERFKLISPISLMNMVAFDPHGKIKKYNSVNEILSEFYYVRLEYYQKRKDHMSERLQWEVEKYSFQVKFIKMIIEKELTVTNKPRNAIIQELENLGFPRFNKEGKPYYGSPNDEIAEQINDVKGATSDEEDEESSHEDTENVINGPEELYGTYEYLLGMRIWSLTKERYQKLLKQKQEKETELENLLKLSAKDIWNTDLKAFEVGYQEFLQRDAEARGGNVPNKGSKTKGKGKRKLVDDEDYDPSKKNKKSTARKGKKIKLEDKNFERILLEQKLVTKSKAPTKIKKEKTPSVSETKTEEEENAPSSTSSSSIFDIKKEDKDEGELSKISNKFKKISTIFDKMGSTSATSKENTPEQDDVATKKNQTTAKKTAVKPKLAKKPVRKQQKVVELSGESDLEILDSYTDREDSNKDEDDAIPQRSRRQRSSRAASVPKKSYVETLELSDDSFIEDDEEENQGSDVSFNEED", "assay": "Yeast toxicity in strain overexpressing Topo II (TOP2oe)", "type": "cell-based", "conditions": "TOP2oe vs wild-type strain", "source_text": "The strains are derived from the A364a genetic background, with the exception of BY4705, which is derived from the S288C background. Gene disruptions were generated by PCR fragment directed replacement (Baudin, et al., Nucleic Acids Research 21: 3329–30 (1993), Guldener, et al., Nucleic Acids Research 24: 2519–24 (1996)). Yeast overexpressing topoisomerase II was constructed by a PCR fragment directed promoter replacement of the topoisomerase II promoter with the yeast GPD promoter flanked upstream by the URA3 marker. All strains (except BY4705) bear the pleitropic drug sensitizing mutations erg6, pdr1, and pdr3 (Balzi, et al., Journal of Bioenergetics & Biomembranes 27: 71–6 (1995), Delaveau, et al, Molecular & General Genetics 244: 501–11 (1994), Gaber, et al., Molecular & Cellular Biology 9: 3447–56 (1989), Saunders, et al., Canadian Journal of Genetics & Cytology, 24: 493–503 (1982). Subik, et al, Current Genetics 10: 665–70 (1986)). The haploid yeast strain BY4705 (Brachmann, et al., Yeast 14: 115–32 (1998)) was used in the experiments described in FIG. 5. Plasmids expressing yeast or human topoisomerase I genes under the GAL promoter (Knab, et al., Journal of Biological Chemistry 268: 22322–30 (1993). Knab, et al., Journal of Biological Chemistry 270: 6141–8 (1995)) were transformed into BY4705 using standard procedures.\nYeast toxicity assays were performed essentially as follows: Exponentially growing cultures of the appropriate strains were diluted in synthetic complete media to a concentration of 7.4×10^4 cells/mL, and aliquots (135 μL) were transferred to each well of clear flat-bottomed 96 well plates. Compounds were added in duplicate or triplicate as 15 μL of the appropriate dilution in 5% DMSO. A 15 μL portion of 5% DMSO was added to control wells. Assay plates were incubated at 30° C. for approximately seven generations growth in solvent control wells (as monitored by OD660, typically 21–24 hours), then the OD660 of the cultures was measured in a microplate reader (Bio-Tek). […]"}
{"smiles": "O=c1c(Cl)c(Cl)cnn1CCCl", "note": "[compound IIa]", "effect of overexpression of Topo II on toxicity": "Neither compound shows a large increase in toxicity"}
{"smiles": "O=C(CCl)Nc1ccc(C(=O)N/N=C/c2ccc(Cl)cc2)cc1", "note": "[compound Ia]", "effect of overexpression of Topo II on toxicity": "Neither compound shows a large increase in toxicity"}
{"smiles": "CC(=O)[C@]1(O)Cc2c(O)c3c(c(O)c2[C@@H](O[C@H]2C[C@H](N)[C@H](O)[C@H](C)O2)C1)C(=O)c1ccccc1C3=O", "note": "[idarubicin, reference compound]", "effect of overexpression of Topo II on toxicity": "large increase"}
